The text below walks through data of US20250352517A1, “THERAPEUTIC OR PROPHYLACTIC AGENT FOR COVID19 WHICH COMPRISES SELENONEINE” (National University Corporation Chiba University, priority 2021, published 2025).

What all share (assay type): biochemical
The target of one assay is T1, papain (Carica papaya, UniProt P00784).
T1 construct: purchased Sigma-Aldrich Japan
The experiment in a line: Inhibitory activity against papain activity (Bz-Arg-MCA fluorescent substrate). To be noted: 10 μg/ml papain, 15 min preincubation, 37° C., pH 7.4, 10 μM Bz-Arg-MCA; from FIG. 5. As to the method:
Thereafter, 10 μM Bz-Arg-MCA was added to the reaction solution, and changes in the fluorescence intensity caused by cleavage of Bz-Arg-MCA were observed over time using a fluorometer.
Thereafter, 10 μM Bz-Arg-MCA was added to the reaction solution, and changes in the fluorescence intensity caused by cleavage of Bz-Arg-MCA were measured using a fluorometer, to investigate the inhibitory activity.

Assay [1] addresses T2, M^pro of SARS-COV2 (Severe acute respiratory syndrome coronavirus 2, UniProt P0DTD1). The experiment in a line: Inhibitory activity against M^pro of SARS-COV2 (Ac-Abu-Tle-Leu-Gln-MCA fluorescent substrate), Example 4. Conditions: 2 μg/ml M^pro, 5 min preincubation.
Procedure: Thereafter, 10 μM Ac-Abu-Tle-Leu-Gln-MCA was added to the reaction solution, and changes in the fluorescence intensity caused by cleavage of Ac-Abu-Tle-Leu-Gln-MCA were measured using a fluorometer, to investigate the inhibitory activity (FIG. 8). In order to provide a control, changes in the fluorescence intensity were measured under the same conditions except that no inhibitory compound was added.
Ac-Abu-Tle-Leu-Gln-MCA is degraded by M^pro, to produce a fluorescent substance as follows. The production of the fluorescent substance is suppressed by the action of an M^pro-inhibiting compound.
Thereafter, 10 μM Ac-Abu-Tle-Leu-Gln-MCA was added to the reaction solution, and changes in the fluorescence intensity caused by cleavage of Ac-Abu-Tle-Leu-Gln-MCA were measured using a fluorometer to measure the fluorescence intensity, to determine an inhibition curve (FIG. 8).
Assay [2] has as its target T2, M^pro of SARS-COV2. The experiment in a line: Inhibitory activity against M^pro of SARS-COV2 at 1 μM test compound, Example 5. Conditions: 2 μg/ml M^pro, measured 1 minute after addition, FIG. 10. The procedure: The M^pro was introduced into a plasmid having GST and a histidine tag (FIG. 6), and the resulting plasmid was used for transformation of the E. coli BL21 (DE3) strain. The E. coli BL21 (DE3) strain was cultured at 37° C. to allow expression of M^pro protein. The cell bodies were recovered, and M^pro protein was purified using a binding agent for the histidine tag. The GST and the histidine tag were removed by autodigestion of M^pro and human rhinovirus 3C protease (HRV), and undigested M^pro and HRV were removed using a binding agent for the histidine tag, to obtain a purified sample of M^pro protein. […]
After dissolving 2 μg/ml M^pro and 1 μM test compound in 50 mM Tris-HCl (pH 7.4) kept at 37° C., preincubation was carried out for 5 minutes. Thereafter, 10 μM Ac-Abu-Tle-Leu-Gln-MCA was added to the reaction solution, and the fluorescence intensity resulting from cleavage of Ac-Abu-Tle-Leu-Gln-MCA was measured using a fluorometer, to measure the inhibitory activity (FIG. 10). […] When the fluorescence intensity observed in the case without addition of a test compound was taken as 100, the fluorescence intensity measured 1 minute after the addition of the test compound was about 20% in the case of selenoneine.

T1 sequence (P00784 134-345): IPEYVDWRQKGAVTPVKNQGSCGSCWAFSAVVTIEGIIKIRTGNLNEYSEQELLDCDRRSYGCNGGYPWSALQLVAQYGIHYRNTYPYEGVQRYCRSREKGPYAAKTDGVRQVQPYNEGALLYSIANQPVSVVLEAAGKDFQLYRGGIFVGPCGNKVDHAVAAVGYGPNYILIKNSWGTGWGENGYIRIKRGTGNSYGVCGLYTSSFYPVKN

For `O=c1c2ccccc2[se]n1-c1ccccc1` [Ebselen, ebselen, reference compound], on papain, the IC50 came out at 5000 nM.

In the case of `C[N+](C)(C)C(Cc1cnc([SeH])[nH]1)C(=O)O` [Selenoneine, 2-selenyl-Nα,Nα,Nα-trimethyl-L-histidine], the concentration for half-maximal inhibition (IC50) on papain is 250 nM; at M^pro of SARS-COV2 [1] (37° C., pH 7.4, 10 μM Ac-Abu-Tle-Leu-Gln-MCA, read-out: IC50 value calculated from the regression curve) it was 540 nM. Further, the “changes in the fluorescence intensity compared with control without inhibitory compound” value on M^pro of SARS-COV2 [1] (5 μM compound, FIG. 8) is reported as “lower than that in the case where no inhibitory compound was added”. For the same compound, the “fluorescence intensity (case without test compound taken as 100)” value on M^pro of SARS-COV2 [2] is given as “about 20%”.

One may read the IC50 as the concentration that gives 50% inhibition.
